# From the kinase profiling compilation of Christmann-Franck et al. (2016)
# Assays:
# Experiment in all cases: KINOMEscan competition binding
# Conditions in all cases: compound 1.0 µM
# PTK2 (human) = PTK2 (human) (UniProt Q05397)
# MARK2 (human) = MARK2 (human) (UniProt Q7KZI7)
# LATS1 (human) = LATS1 (human) (UniProt O95835)
# BMPR2 (human) = BMPR2 (human) (UniProt Q13873)
# CSNK1A1 (human) = CSNK1A1 (human) (UniProt P48729)
# PKN3 (M.tuberculosis) = PKN3 (M.tuberculosis) (UniProt Q6P5Z2)
# CDK16 (human) = CDK16 (human) (UniProt Q00536)
# MAPKAPK5 (human) = MAPKAPK5 (human) (UniProt Q8IW41)
# Sequence of MAPKAPK5 (human) (Q8IW41 whole entry, looked up): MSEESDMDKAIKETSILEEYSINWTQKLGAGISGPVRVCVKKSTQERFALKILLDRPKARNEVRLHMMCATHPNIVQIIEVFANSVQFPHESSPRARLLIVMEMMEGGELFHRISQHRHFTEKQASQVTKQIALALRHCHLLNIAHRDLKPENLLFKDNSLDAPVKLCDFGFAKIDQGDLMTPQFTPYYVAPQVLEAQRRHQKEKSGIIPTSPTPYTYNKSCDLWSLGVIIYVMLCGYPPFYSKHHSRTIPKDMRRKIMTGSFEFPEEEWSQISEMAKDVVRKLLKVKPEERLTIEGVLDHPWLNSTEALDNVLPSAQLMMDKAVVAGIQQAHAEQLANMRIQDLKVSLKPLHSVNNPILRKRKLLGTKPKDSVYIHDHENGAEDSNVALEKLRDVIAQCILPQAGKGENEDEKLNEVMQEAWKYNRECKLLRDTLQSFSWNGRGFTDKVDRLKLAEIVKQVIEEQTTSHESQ
# TSSK1B (human) = TSSK1B (human) (UniProt Q9BXA7)
# KIT (human) = KIT (human) (UniProt P10721)
# MAPK10 (human) = MAPK10 (human) (UniProt P53779)
# MET (human) = MET (human) (UniProt P08581)
# CPK1 (P.falciparum) = system: CPK1 (P.falciparum)
# STK33 (human) = STK33 (human) (UniProt Q9BYT3)
# MYO3B (human) = MYO3B (human) (UniProt Q8WXR4)
# STK32A (human) = STK32A (human) (UniProt Q8WU08)
# CDC42BPG (human) = CDC42BPG (human) (UniProt Q6DT37)
# Sequence of CDC42BPG (human) (Q6DT37 whole entry, looked up): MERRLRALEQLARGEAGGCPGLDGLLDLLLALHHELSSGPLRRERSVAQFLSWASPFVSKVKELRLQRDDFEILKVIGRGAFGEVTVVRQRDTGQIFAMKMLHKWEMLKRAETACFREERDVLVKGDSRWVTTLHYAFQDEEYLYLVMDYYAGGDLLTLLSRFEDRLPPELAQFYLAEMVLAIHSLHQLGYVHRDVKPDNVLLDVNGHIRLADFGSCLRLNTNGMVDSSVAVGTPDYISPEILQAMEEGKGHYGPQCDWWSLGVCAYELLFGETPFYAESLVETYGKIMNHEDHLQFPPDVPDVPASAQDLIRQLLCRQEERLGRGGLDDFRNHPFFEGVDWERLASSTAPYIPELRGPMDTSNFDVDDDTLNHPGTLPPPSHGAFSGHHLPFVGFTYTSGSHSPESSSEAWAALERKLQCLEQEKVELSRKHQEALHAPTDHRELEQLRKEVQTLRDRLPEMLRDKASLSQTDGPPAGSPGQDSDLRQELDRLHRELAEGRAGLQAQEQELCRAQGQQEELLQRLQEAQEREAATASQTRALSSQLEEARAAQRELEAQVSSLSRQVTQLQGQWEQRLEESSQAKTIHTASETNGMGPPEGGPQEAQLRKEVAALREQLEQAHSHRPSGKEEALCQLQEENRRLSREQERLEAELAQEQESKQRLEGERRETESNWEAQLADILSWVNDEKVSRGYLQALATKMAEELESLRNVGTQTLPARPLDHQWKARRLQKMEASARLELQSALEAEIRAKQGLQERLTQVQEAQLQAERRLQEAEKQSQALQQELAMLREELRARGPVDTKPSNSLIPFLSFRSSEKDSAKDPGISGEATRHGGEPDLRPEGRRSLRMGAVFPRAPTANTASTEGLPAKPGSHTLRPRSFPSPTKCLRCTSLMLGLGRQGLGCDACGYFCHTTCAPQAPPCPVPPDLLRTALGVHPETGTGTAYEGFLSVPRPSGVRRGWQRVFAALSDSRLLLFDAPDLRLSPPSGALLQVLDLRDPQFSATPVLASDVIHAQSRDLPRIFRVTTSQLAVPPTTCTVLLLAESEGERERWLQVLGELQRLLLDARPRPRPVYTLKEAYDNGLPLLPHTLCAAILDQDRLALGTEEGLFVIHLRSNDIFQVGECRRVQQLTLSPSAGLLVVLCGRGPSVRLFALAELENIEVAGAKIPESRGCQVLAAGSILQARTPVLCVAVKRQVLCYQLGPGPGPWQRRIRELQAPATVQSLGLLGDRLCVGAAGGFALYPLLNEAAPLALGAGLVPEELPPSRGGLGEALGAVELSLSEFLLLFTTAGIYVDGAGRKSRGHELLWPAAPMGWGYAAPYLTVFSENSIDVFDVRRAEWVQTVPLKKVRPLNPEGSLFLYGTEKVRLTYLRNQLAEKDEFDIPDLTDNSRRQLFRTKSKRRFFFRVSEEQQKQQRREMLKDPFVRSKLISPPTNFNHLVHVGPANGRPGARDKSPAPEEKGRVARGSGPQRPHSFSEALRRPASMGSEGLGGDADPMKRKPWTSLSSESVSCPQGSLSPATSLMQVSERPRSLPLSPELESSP
# EIF2AK1 (human) = EIF2AK1 (human) (UniProt Q9BQI3)
# ACVR2A (human) = ACVR2A (human) (UniProt P27037)
# DCLK3 (human) = DCLK3 (human) (UniProt Q9C098)
# PAK7 (human) = PAK7 (human) (UniProt Q9P286)
# MAP3K10 (human) = MAP3K10 (human) (UniProt Q02779)
# TEK (human) = TEK (human) (UniProt Q02763)
# TNNI3K (human) = TNNI3K (human) (UniProt Q59H18)
# ULK3 (human) = ULK3 (human) (UniProt Q6PHR2)
# [1] = system: FLT3 (human), P36888 [D835Y]
# FLT3 (human) = FLT3 (human) (UniProt P36888)
# NLK (human) = NLK (human) (UniProt Q9UBE8)
# CDK3 (human) = CDK3 (human) (UniProt Q00526)
# MINK1 (human) = MINK1 (human) (UniProt Q8N4C8)
# MAPK3 (human) = MAPK3 (human) (UniProt P27361)
# HIPK2 (human) = HIPK2 (human) (UniProt Q9H2X6)
# [2] = system: FLT3 (human), P36888 [K663Q]
# [3] = system: PIK3CA (human), P42336 [Q546K]
# Sequence of PIK3CA (human), P42336 [Q546K] (P42336 whole entry Q546K, looked up): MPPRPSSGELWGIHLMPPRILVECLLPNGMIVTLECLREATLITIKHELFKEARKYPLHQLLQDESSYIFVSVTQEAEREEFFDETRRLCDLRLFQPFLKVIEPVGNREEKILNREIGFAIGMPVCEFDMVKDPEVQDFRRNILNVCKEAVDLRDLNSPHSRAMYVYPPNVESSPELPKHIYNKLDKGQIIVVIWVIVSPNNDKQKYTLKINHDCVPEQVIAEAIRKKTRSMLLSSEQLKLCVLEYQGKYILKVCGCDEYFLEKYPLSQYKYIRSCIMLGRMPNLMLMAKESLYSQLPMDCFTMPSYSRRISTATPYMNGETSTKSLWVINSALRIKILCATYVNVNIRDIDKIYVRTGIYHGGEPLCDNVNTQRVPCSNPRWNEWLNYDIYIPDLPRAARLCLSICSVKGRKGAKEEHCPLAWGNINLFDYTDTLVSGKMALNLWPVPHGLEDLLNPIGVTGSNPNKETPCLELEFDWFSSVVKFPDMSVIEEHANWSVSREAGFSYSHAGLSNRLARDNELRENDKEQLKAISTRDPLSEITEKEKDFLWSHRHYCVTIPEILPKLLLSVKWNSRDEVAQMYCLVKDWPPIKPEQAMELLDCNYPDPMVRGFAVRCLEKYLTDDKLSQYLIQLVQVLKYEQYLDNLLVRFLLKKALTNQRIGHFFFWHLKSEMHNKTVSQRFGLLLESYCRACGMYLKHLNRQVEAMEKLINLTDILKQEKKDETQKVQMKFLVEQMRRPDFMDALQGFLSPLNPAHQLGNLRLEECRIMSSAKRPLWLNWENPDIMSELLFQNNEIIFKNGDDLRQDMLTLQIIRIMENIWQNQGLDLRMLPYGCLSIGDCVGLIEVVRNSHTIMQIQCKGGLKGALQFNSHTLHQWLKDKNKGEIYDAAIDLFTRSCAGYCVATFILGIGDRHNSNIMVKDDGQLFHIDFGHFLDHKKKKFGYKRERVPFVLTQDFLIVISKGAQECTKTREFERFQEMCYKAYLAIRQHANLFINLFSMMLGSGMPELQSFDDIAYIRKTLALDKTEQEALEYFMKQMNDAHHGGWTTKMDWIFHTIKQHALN
# NTRK3 (human) = NTRK3 (human) (UniProt Q16288)
# MAPK13 (human) = MAPK13 (human) (UniProt O15264)
# ULK1 (human) = ULK1 (human) (UniProt O75385)
# CDK15 (human) = CDK15 (human) (UniProt Q96Q40)
# MAPK9 (human) = MAPK9 (human) (UniProt P45984)
# AURKB (human) = AURKB (human) (UniProt Q96GD4)
# Sequence of AURKB (human) (Q96GD4 whole entry, looked up): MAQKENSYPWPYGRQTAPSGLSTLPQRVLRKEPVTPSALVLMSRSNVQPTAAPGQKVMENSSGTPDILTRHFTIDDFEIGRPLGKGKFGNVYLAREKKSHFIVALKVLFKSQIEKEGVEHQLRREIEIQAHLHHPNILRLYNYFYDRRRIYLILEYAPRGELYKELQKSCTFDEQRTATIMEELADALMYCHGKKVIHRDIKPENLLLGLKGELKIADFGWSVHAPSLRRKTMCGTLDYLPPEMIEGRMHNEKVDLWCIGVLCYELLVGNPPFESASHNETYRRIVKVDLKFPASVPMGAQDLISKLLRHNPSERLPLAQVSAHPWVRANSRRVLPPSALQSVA
# DSTYK (human) = DSTYK (human) (UniProt Q6XUX3)
# MAP2K3 (human) = MAP2K3 (human) (UniProt P46734)
# Sequence of MAP2K3 (human) (P46734 whole entry, looked up): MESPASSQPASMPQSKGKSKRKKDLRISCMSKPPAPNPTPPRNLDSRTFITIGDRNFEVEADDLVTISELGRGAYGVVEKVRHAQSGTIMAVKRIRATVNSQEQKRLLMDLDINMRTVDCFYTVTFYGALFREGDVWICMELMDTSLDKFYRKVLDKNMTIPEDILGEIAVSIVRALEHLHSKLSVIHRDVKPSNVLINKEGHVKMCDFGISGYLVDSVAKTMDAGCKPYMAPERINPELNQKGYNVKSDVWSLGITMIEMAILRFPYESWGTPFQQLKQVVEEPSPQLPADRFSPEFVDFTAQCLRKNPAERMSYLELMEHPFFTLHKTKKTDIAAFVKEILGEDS
# MAP4K3 (human) = MAP4K3 (human) (UniProt Q8IVH8)
# Sequence of MAP4K3 (human) (Q8IVH8 whole entry, looked up): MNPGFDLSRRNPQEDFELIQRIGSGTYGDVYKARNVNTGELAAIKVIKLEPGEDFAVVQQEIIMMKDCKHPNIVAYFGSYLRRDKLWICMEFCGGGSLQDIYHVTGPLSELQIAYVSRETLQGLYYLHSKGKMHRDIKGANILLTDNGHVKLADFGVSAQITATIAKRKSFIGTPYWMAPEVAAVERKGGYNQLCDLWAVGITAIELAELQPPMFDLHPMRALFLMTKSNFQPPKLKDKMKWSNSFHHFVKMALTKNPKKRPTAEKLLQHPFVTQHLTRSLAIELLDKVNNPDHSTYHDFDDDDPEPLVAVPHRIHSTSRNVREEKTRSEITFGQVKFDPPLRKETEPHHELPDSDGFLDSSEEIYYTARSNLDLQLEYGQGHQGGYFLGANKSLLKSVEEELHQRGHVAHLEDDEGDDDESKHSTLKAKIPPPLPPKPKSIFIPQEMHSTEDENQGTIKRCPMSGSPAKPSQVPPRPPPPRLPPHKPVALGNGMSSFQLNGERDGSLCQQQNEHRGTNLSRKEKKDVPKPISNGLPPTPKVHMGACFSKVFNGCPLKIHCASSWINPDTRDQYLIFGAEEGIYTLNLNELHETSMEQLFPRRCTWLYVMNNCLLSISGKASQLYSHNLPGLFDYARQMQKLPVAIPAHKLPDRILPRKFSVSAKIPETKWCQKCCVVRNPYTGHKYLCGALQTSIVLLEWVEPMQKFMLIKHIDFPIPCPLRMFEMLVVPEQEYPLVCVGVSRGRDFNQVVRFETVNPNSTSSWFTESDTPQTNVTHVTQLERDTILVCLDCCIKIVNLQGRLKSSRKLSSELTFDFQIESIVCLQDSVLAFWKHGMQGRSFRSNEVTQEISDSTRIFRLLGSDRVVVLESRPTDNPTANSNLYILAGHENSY
# Sequence of CSNK1A1 (human) (P48729 whole entry, looked up): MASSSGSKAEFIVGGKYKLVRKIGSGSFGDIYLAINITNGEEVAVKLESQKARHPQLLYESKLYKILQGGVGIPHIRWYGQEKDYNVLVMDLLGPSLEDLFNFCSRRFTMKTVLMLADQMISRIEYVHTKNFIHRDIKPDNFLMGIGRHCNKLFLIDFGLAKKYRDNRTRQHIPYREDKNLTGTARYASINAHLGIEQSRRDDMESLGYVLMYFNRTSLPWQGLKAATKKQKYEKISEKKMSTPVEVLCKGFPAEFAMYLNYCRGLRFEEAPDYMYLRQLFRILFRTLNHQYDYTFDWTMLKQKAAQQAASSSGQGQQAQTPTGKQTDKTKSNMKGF
compound,measurement,setting,value
CN(C)C/C=C/C(=O)Nc1cccc(C(=O)Nc2ccc(Nc3nccc(-c4cccnc4)n3)cc2)c1,"kinase still bound, per cent of control",PTK2 (human),100%
same,"kinase still bound, per cent of control",MARK2 (human),69%
same,"kinase still bound, per cent of control",LATS1 (human),100%
same,"kinase still bound, per cent of control",BMPR2 (human),64%
same,"kinase still bound, per cent of control",CSNK1A1 (human),19%
same,"kinase still bound, per cent of control",PKN3 (M.tuberculosis),69%
same,"kinase still bound, per cent of control",CDK16 (human),89%
same,"kinase still bound, per cent of control",MAPKAPK5 (human),68%
same,"kinase still bound, per cent of control",TSSK1B (human),100%
same,"kinase still bound, per cent of control",KIT (human),2.4%
same,"kinase still bound, per cent of control",MAPK10 (human),0%
same,"kinase still bound, per cent of control",MET (human),100%
same,"kinase still bound, per cent of control",CPK1 (P.falciparum),77%
same,"kinase still bound, per cent of control",STK33 (human),93%
same,"kinase still bound, per cent of control",MYO3B (human),100%
same,"kinase still bound, per cent of control",STK32A (human),100%
same,"kinase still bound, per cent of control",CDC42BPG (human),73%
same,"kinase still bound, per cent of control",EIF2AK1 (human),100%
same,"kinase still bound, per cent of control",ACVR2A (human),43%
same,"kinase still bound, per cent of control",DCLK3 (human),100%
same,"kinase still bound, per cent of control",PAK7 (human),75%
same,"kinase still bound, per cent of control",MAP3K10 (human),65%
same,"kinase still bound, per cent of control",TEK (human),98%
same,"kinase still bound, per cent of control",TNNI3K (human),77%
same,"kinase still bound, per cent of control",ULK3 (human),7%
same,"kinase still bound, per cent of control",[1],13%
same,"kinase still bound, per cent of control",FLT3 (human),64%
same,"kinase still bound, per cent of control",NLK (human),81%
same,"kinase still bound, per cent of control",CDK3 (human),100%
same,"kinase still bound, per cent of control",MINK1 (human),37%
same,"kinase still bound, per cent of control",MAPK3 (human),100%
same,"kinase still bound, per cent of control",HIPK2 (human),9.2%
same,"kinase still bound, per cent of control",[2],48%
same,"kinase still bound, per cent of control",[3],100%
same,"kinase still bound, per cent of control",NTRK3 (human),97%
same,"kinase still bound, per cent of control",MAPK13 (human),100%
same,"kinase still bound, per cent of control",ULK1 (human),100%
same,"kinase still bound, per cent of control",CDK15 (human),96%
same,"kinase still bound, per cent of control",MAPK9 (human),0%
same,"kinase still bound, per cent of control",AURKB (human),63%
same,"kinase still bound, per cent of control",DSTYK (human),100%
same,"kinase still bound, per cent of control",MAP2K3 (human),41%
same,"kinase still bound, per cent of control",MAP4K3 (human),38%
